Data as given in patent US7803374B2, “Targeted atherosclerosis treatment” (Barnes-Jewish Hospital, priority 2004, dated 2010).
Read-outs that look alike come from different tables or passages of the source.

B1: endostatin: anti-angiogenic agent (protein, UniProt P39060 1572-1754, looked up)
Endostatin: HSHRDFQPVLHLVALNSPLSGGMRGIRGADFQCFQQARAVGLAGTFRAFLSSRLQDLYSIVRRADRAAVPIVNLKDELLFPSWEALFSGSEGPLKPGARIFSFDGKDVLRHPTWPQKSVWHGSDPNGRRLTESYCETWRTEAPSATGQASSLLGGRLLGQSAASCHHAYIVLCIENSFMTASK
modifications: Endostatin
notes: anti-angiogenic agent

Key:
[1] = high dose; cited from earlier work
Apo E−/− mice = conditions: cited from earlier work; for foam cell deposition or fibromuscular lesion development: early atherogenesis; for effectiveness in later treatment: later periods of treatment (32 to 48 weeks)
[2] = In vitro dissolution: release of fumagillin from nanoparticles by dialysis; type: physicochemical; conditions: generally, due to hydrophobic nature
Experimental: Fumagillin nanoparticle emulsions (250 μl) were dialyzed in 60,000 MW cutoff dialysis tubing against 3.5 ml of releasing medium (0.9% NaCl, 0.2 mg/ml human serum albumin and 0.05% sodium azide) and continuously agitated at 37° C. The releasing medium was replaced daily and analyzed for released fumagillin concentration. Fumagillin was analyzed by reverse-phase HPLC (Waters Corporation). Chromatography was performed using a Waters Novapak C18, 60 Å, 4 μm reversed-phase column (3.9×150 mm) with an isocratic 50% acetonitrile/0.05% of phosphoric acid mobile phase (1 ml/min at ambient temperature).

[3] = treated for 4 months (20 to 36 weeks)

Molecule	side effects [1]	intimal vessels and atheroma expansion (Apo E−/− mice; 30 mg per kg every other day for 13 weeks)	foam cell deposition or fibromuscular lesion development (Apo E−/− mice)	effectiveness in later treatment (Apo E−/− mice)	intimal vessels and atheroma expansion (Apo E−/− mice; [3])	fumagillin released (general statement) [2] [%]
CO[C@@H]1[C@H](OC(=O)NC(=O)CCl)CC[C@]2(CO2)[C@H]1[C@@]1(C)O[C@@H]1CC=C(C)C [TNP-470]	serious side effects such as neurocognitive toxicity	reduction in intimal vessels and diminished atheroma expansion	Neither endostatin nor TNP-470 altered	less effective	reduced number of intimal vessels and diminished atheroma expansion	–
CO[C@@H]1[C@H](OC(=O)/C=C/C=C/C=C/C=C/C(=O)O)CC[C@]2(CO2)[C@H]1[C@@]1(C)O[C@@H]1CC=C(C)C [fumagillin]	–	–	–	–	–	< 10
B1	–	–	Neither endostatin nor TNP-470 altered	less effective	reduced number of intimal vessels and diminished atheroma expansion	–
